Experimental data published in article PMC12124432, “Antimicrobial Peptide‐Peptoid Macrocycles from the Polymyxin B2 Chemical Space” (Angewandte Chemie (International Ed. in English), 2025).
≈ marks a conversion by molar mass, not a printed value. Bridge positions count the residues as written; N and C are the ends. Square brackets hold non-standard residues; d marks the D form. Peptide text beside a SMILES is read from it. * marks the point of attachment. Propanoyl(3-cHex) = O=C(CCC1CCCCC1)*; Gly(NCH2CH2Ph) = O=C(O)CNCCc1ccccc1; Heptanoyl(6-Me) = CC(C)CCCCC(=O)*; N(iPr)Gly = CC(C)NCC(=O)O; Dab = NCC[C@H](N)C(=O)O

Tests used:
P. aeruginosa PAO1 = type: cell-based, Pseudomonas aeruginosa; conditions: PAO1, pH 8.5
Experimental: (§1) Minimal Inhibitory Concentration (MIC)
(§2) Antimicrobial activity was assayed for all the peptide-peptoids against P. aeruginosa PAO1, K. pneumoniae NCTC418, E. coli W3110, A. baumannii ATCC 19606, methicillin-resistant S. aureus COL (MRSA) and for selected peptides on P. aeruginosa PA14, as well as the clinical isolates ZEM-1A and ZEM9A, K. pneumoniae OXA-48, Enterobacter cloacae, Stenotrophomonas maltophilia and Staphylococus epidermidis. To determine the Minimal Inhibitory Concentration (MIC), Broth Microdilution method was used. A colony of bacteria was picked and grown in LB medium overnight at 37 °C. The next day, the culture was then regrown in LB medium to log phase (OD600 = 0.6 to 0.8), which lasted approximately 4 hours, and diluted to an OD600 of 0.022 in the desired medium (full MH or 12.5% MH).
(§3) The compounds were prepared as stock solutions of 2 mg/mL in sterilized MilliQ deionized water and then diluted in the desired media (full MH or 12.5% MH) to reach the first concentration tested (32 μg/mL). The compounds were added to the first well of a 96-well sterile, round bottom microtiter plates in polystyrene (TPP®, untreated) and diluted serially by ½ in the desired media (full MH or 12.5% MH), to a final volume of 150 µL/well. To each well was finally added 4 µL of the diluted bacterial suspension (see above), corresponding to approximately 5×10^5 CFU. For each test, two columns of the plate were kept for sterility control (medium only), growth control (medium with bacterial inoculum, no compound). The positive control, Polymyxin B (starting with a concentration of 16 µg/mL) in MH medium with bacterial inoculums, was introduced in the two first lines of the plate. The plates were incubated at 37 °C for ca. 18 hours under static conditions. 15 µL of 3-(4,5-dimethylthiazol-2-yl)-2,5-diphenyltetrazolium bromide (MTT)[7] (1 mg/mL in sterilized MilliQ deionized water) were added to each well and the plates were incubated for 20-30 minutes at room temperature. The […]
(§4) minimal inhibitory concentration (MIC) was defined as the lowest concentration of the compound that inhibits the visible growth of the tested bacteria (yellow) with the unaided eye.
(§5) Minimal Hemolytic Concentration (MHC) […]
(§6) 11. Minimal inhibitory in presence of salt
The same procedure as for the antibacterial activity measurements by minimal inhibitory concentration assay (MIC) was applied. The media, 12.5% Mueller-Hinton broth was this time supplemented with different salt concentrations (0, 100, 200 300 mM NaCl). The MIC activities were then determined against Pseudomonas aeruginosa PAO1 and Escherichia coli […]
Table S6. Minimal inhibitory concentration (MIC) on P. aeruginosa PAO1 as function of salt […]
(§7) All data, in μg/mL, measured against P. aeruginosa PAO1, with or without addition of salt (NaCl). The values were measured in dilute medium (12.5% MH) and at slightly basic pH (pH = 8.5), after incubation for 16-20 h at 37 °C. Values represent two different duplicate MIC determinations.

E. coli W3110 = type: cell-based, Escherichia coli; conditions: W3110, pH 8.5
Experimental: as §1, §2, §3, §4, §5, §6
The same procedure as for the antibacterial activity measurements by minimal inhibitory concentration assay (MIC) was applied. The media, 12.5% Mueller-Hinton broth was this time supplemented with different salt concentrations (0, 100, 200 300 mM NaCl). […]
as §7

[1] = system: E. coli W3110, P. aeruginosa PAO1, S. aureus COL (MRSA), A. baumannii ATCC19606, K. pneumoniae NCTC418; test: MIC of macrocycles versus their linearized analogs (Table S4 panel); type: cell-based; conditions: Table S4, 12.5% MH pH 7.4
Experimental: as §1
as §2, with “MH). […]” for “MH).”
To determine the minimal hemolytic concentration (MHC), stock solutions of 8 mg/mL of the peptide in sterilized MilliQ water deionized were prepared and 50 μL were diluted serially by ½ in 50 μL PBS (pH 7.4) in 96-well plate (Costar or Nunc, polystyrene, untreated). […] Minimal hemolytic concentration (MHC) end points were determined by visual determination of the wells after the incubation period. […]

[2] = Dansyl-polymyxin (DsPMB) displacement assay; type: binding, Pseudomonas aeruginosa; conditions: 37 °C, 2.5 µM DsPMB, LPS 3 μg/mL, emission 485 nm; mean ± SD, n = 3
Experimental: 14. Dansyl-Polymyxin (DsPMB) Displacement Assay
Saturation determination. Dansyl-polymyxin (DsPMB) in water (1.5 mg/mL) and lyophilized lipopolysaccharides from P. aeruginosa were obtained from Merck. LPS were prepared as a 1 mg/mL stock solution in mQ water and stored at 4 °C. The fluorescence saturation of DsPMB with LPS was first determined, by titration (0.25 μM increments, up to 5 μM) of the DsPMB into a 3 μg/mL of LPS (10 mM Tris, 10 mM NaCl buffer, pH 7.4), at 37 °C. The fluorescence was recorded with a Jasco spectrofluorometer FP-8300, with the excitation at λex = 340 nm (5 nm slit width) and recorded from 420 to 650 nm. The fluorescence was recorded two minutes after each addition. Saturation was graphically determined, at a concentration of D sPMB ≈ 2.5 μM (λem = 485 nm). Each measurement was determined in triplicates.
Displacement assay. The displacement effect of the various peptides was determined by measuring the reduction of fluorescence intensity, at 37 °C. Initially, DsPMB (2.5 μM) was mixed with LPS (3 μg/mL) and let it react for 15 minutes before recording the fluorescence […]
intensity (at λem = 485 nm and λex = 340 nm). Then, the peptide was titrated (1 μM increments, up to 10 μM) into the DsPMB/LPS mixture, and the fluorescence was recorded two minutes after the compound addition. The decrease in fluorescence was interpreted as the displacement of DsPMB from the LPS due to competitive binding by the peptide.[12,13] Specific Fluorescence Enhancement
Figure S8. Fluorescence emission of dansyl-polymyxin (DsPMB) in presence of lipopolysaccharide (LPS) extracted from P. aeruginosa (3 µg/mL) in TRIS/NaCl buffer (10 mM, pH 7.4). The fluorophore was excited at 340 nm (5 nm slit width) and recorded from 420 to 650 nm. The data represent mean value from three measurement. Specific fluorescence represents the emission of DsPMB with the non-specific fluorescence (no LPS) deduced.

human red blood cells = test: Minimal hemolytic concentration (MHC); type: cell-based; conditions: pH 7.4, 25 °C, 4 h
Experimental: as §4
Minimal Hemolytic Concentration (MHC)
To determine the minimal hemolytic concentration (MHC), stock solutions of 8 mg/mL of the peptide in sterilized MilliQ water deionized were prepared and 50 μL were diluted serially by ½ in 50 μL PBS (pH 7.4) in 96-well plate (Costar or Nunc, polystyrene, untreated). Human red blood cells (hRBC) were obtained by centrifugation of 1.5 mL of whole blood, from the blood bank of Bern, at 3000 rpm for 15 minutes at 4 °C. Plasma was discarded and the pellet was re-suspended in a 15 mL Falcon tube in 5 mL of PBS. The washing was repeated three times, and the remaining pellet was re-suspended in 10 mL of PBS at a final hRBC concentration of 5%. The hRBC suspension (50 μL) was added to each well and the plate was incubated at room temperature for 4 hours. Minimal hemolytic concentration (MHC) end points were determined by visual determination of the wells after the incubation period.
Controls on each plate included a blank medium control (50 μL PBS + 50 μL of hRBC suspension) and a hemolytic activity control t-octylphenoxypolyethoxyethanol (Triton-X100) (1 % in MilliQ-deionized water) 50 μL + 50 μL hRBC suspension).
Table S3. […]

Serum stability assay = type: in vitro ADME; conditions: human serum 12.5% in 0.1 M Tris buffer pH 7.4, 37 °C, 200 µM peptide, time points 0/1/6/10/24 h, triplicates, LC(-MS), 4-hydroxybenzoic acid internal standard
Experimental: Human serum was diluted in 0.1 M filtered TRIS buffer pH 7.4 (25%, 1:3, v/v). Selected hybrids were diluted in 0.1 M filtered TRIS buffer pH 7.4 to a concentration of 400 μM and 0.1 mg/mL of 4-hydroxybenzoic acid was added as internal standard. Aliquots of peptide solution (50 μL) were added to aliquots of serum (50 uL) in sterile Eppendorf tubes, to reach a peptide concentration of 200 μM during the assay. Samples were incubated at 37 °C under gentle stirring (350 rpm). Different samples (triplicates) were quenched at different time points (0 / 1 / 6 / 10 / 24 h) by precipitating serum proteins through the addition of 100 μL of a solution ZnSO4·7 H2O (0.05 mM) in water/ACN (1:1) and cooling in ice bath for 10 minutes.
Protein precipitates were pelleted under centrifugation (5 min at 14’000 rpm) and the supernatants were analysed by LC-MS. Experiment controls included a precipitation control for each peptide to test their resistance to the protein precipitation conditions and serum blanks to check reproducibility over different serum batches. Peaks corresponding to the internal standard and the undegraded peptides were integrated, with the ratio peptide/standard at t = 0 h as 100 % undegraded peptide.
Cell Culture Conditions. […]

Compound | MIC on P. aeruginosa, 0 mM NaCl (P. aeruginosa PAO1) [µg/mL] | MIC on P. aeruginosa, 100 mM NaCl (P. aeruginosa PAO1) [µg/mL] | MIC on P. aeruginosa, 200 mM NaCl (P. aeruginosa PAO1) [µg/mL] | MIC on P. aeruginosa, 300 mM NaCl (P. aeruginosa PAO1) [µg/mL] | MIC on E. coli, 0 mM NaCl (E. coli W3110) [µg/mL] | MIC on E. coli, 100 mM NaCl (E. coli W3110) [µg/mL] | MIC on E. coli, 200 mM NaCl (E. coli W3110) [µg/mL] | MIC on E. coli, 300 mM NaCl (E. coli W3110) [µg/mL] | Loss of activity of linearized analog relative to macrocyclic parent [1] | further results
CC(C)N1CC(=O)N[C@@H](CCCCN)C(=O)N[C@@H](CO)C(=O)N[C@@H](CCCCN)C(=O)NCC[C@H](NC(=O)[C@H](CCCCN)NC(=O)[C@@H]2CCCN2C(=O)CN(CCc2ccccc2)C(=O)CCC2CCCCC2)C(=O)N[C@@H](CC(N)=O)C(=O)NCC1=O [EB37] ({Propanoyl(3-cHex)}-[Gly(NCH2CH2Ph)]PK[Dab]NG[N(iPr)Gly]KSK; lactam 4-C) | 32 (≈ 25.8 µM) | > 64 | > 64 | > 64 | 32 (≈ 25.8 µM) | > 64 | > 64 | > 64 |  | 
CC(C)CCCCC(=O)N[C@@H](CCN)C(=O)N[C@H](C(=O)N[C@@H](CCN)C(=O)N[C@H]1CCNC(=O)[C@H]([C@@H](C)O)NC(=O)[C@H](CCN)NC(=O)[C@H](CCN)NC(=O)[C@H](CC(C)C)NC(=O)[C@@H](Cc2ccccc2)NC(=O)[C@H](CCN)NC1=O)[C@@H](C)O [PMB2, polymyxin B2] ({Heptanoyl(6-Me)}-[Dab]T[Dab][Dab][Dab][dF]L[Dab][Dab]T; lactam 4-C) | 0.5 (≈ 0.42 µM) | 0.25 (≈ 0.21 µM) | 0.25 (≈ 0.21 µM) | 0.25 (≈ 0.21 µM) | 0.25 (≈ 0.21 µM) | 0.25 (≈ 0.21 µM) | 0.25 (≈ 0.21 µM) | 0.25 (≈ 0.21 µM) |  | 
FA4-Val-C2-A1-Ala-Lys-Gly-Lys-C3-Lys [EB13lin, linearized analog of EB13] |  |  |  |  |  |  |  |  | between two‐fold and eight‐fold less active | 
FA5-A3-Lys-Asn-Ala-Lys-H2-Lys-C3-Lys [EB12lin, linearized analog of EB12] |  |  |  |  |  |  |  |  | between two‐fold and eight‐fold less active | 
FA7-H4-C3-A6-Dab(*)-C2-Lys-Ser-Lys-C1-Lys-* (lariat or depsi) [EB33, hemolytic peptide-peptoid macrocycle, PDGA-generated PMB2 analog] |  |  |  |  |  |  |  |  |  | Binding to lipopolysaccharide (dansyl-PMB fluorescence displacement) [2]: an even stronger signal; Hemolysis of red blood cells relative to PMB2 (human red blood cells): slightly more hemolytic than PMB2
FA10-A3-Lys-C2-Dab(*)-Asn-C2-Lys-Val-Lys-* (lariat or depsi) [EB18, peptide-peptoid macrocycle, PDGA-generated PMB2 analog] |  |  |  |  |  |  |  |  |  | Stability against proteolysis in human serum (undegraded peptide) (Serum stability assay): did not show any significant degradation in human serum
